Measurements taken from patent publication US20240383953A1, “NOVEL NAN[…] NANOG PRION-LIKE REPEATS” (BAYLOR COLLEGE OF MEDICINE, priority 2021, published 2024).
Residues, ends and D or L forms follow the SMILES beside them.

test: WR peptide solubility (supernatant to pellet ratio after centrifugation); type: physicochemical; settings: 0.1 and 0.2 mg/mL
Procedure: FIGS. 7A-7H provide data and illustrations related to the fibrillation propensities of NANOG WR-derived peptides. FIG. 7A illustrates NANOG domain organization and the human and mouse NANOG WR-derived peptides used in Example 2. […] Right panels show aggregation kinetics for peptides 1-3 w (top) and 1-4 w (bottom) after 1 min equilibration. Similar results were obtained from two independent experiments. […] Similar results were obtained from two independent experiments. […] Similar results were obtained from two independent experiments. […] Similar results were obtained from two independent preparations. […]
(§1) Amino acids of the synthesized peptides were classified into aromatic, polar, charged and structure breakers (FIG. 7B). Applicant observed a striking degree of correlation between amino acid type distribution, and the peptide's solubilities and aggregation propensities, as monitored by Thioflavin T (ThT, amyloid binding dye) aggregation kinetics assay (FIGS. 7B-7D). Formation of β-sheet fibrils were confirmed by CD spectroscopy and Transmission Electron Microscopy. Hydrophobic/aromatic residues as well as polar residues such as Gln and Asn are commonly found in amyloid or prion-like domains. On the other hand, charged and ‘structure breaker’ residues such as Gly and Pro contribute to the peptide's higher solubility. […] Aggregation kinetics was rapid; 1-4w reached maximal ThT fluorescence within 2-3 min and 1-3w ˜20 min (FIG. 7D).

Q: With “WCTQSWNNQAWNSPFYNCGEESK [6-8w, human C-terminal WR repeats]” as the molecule, how does the peptide solubility read?
A: relatively higher solubility

Q: Which peptide solubility does the source give for `C[C@@H](O)[C@H](NC(=O)[C@H](CO)NC(=O)[C@H](CC(N)=O)NC(=O)[C@H](CC(N)=O)NC(=O)[C@H](Cc1c[nH]c2ccccc12)NC(=O)[C@@H](NC(=O)[C@H](CCC(N)=O)NC(=O)[C@H](CC(N)=O)NC(=O)[C@H](CO)NC(=O)[C@@H](N)Cc1c[nH]c2ccccc12)[C@@H](C)O)C(=O)N[C@@H](CCCCN)C(=O)O` [1-2w] (H-WSNQTWNNSTK-OH; N-terminus and C-terminus assumed) here?
A: very soluble

Q: With `C[C@@H](O)[C@H](NC(=O)[C@H](CCC(N)=O)NC(=O)[C@H](CC(N)=O)NC(=O)[C@H](CC(N)=O)NC(=O)[C@H](Cc1c[nH]c2ccccc12)NC(=O)[C@@H](NC(=O)[C@@H]1CCCN1C(=O)[C@H](CC(N)=O)NC(=O)[C@@H](NC(=O)[C@H](Cc1c[nH]c2ccccc12)NC(=O)[C@@H](NC(=O)[C@H](CCC(N)=O)NC(=O)[C@H](CO)NC(=O)[C@H](CO)NC(=O)[C@H](Cc1c[nH]c2ccccc12)NC(=O)[C@@H](NC(=O)[C@@H]1CCCN1C(=O)[C@H](CC(N)=O)NC(=O)[C@@H](NC(=O)[C@H](Cc1c[nH]c2ccccc12)NC(=O)[C@@H](NC(=O)[C@H](CCC(N)=O)NC(=O)[C@H](CO)NC(=O)CNC(=O)[C@@H](N)Cc1c[nH]c2ccccc12)[C@@H](C)O)[C@@H](C)O)[C@@H](C)O)[C@@H](C)O)[C@@H](C)O)[C@@H](C)O)C(=O)N[C@@H](CCCCN)C(=O)O` [m1-5w] (H-WGSQTWTNPTWSSQTWTNPTWNNQTK-OH; N-terminus and C-terminus assumed) as the molecule, how does the peptide solubility read?
A: relatively higher solubility

Q: With `C[C@@H](O)[C@H](NC(=O)[C@H](CCC(N)=O)NC(=O)[C@H](CC(N)=O)NC(=O)[C@H](CO)NC(=O)[C@H](Cc1c[nH]c2ccccc12)NC(=O)[C@@H](NC(=O)[C@H](CO)NC(=O)[C@H](CC(N)=O)NC(=O)[C@H](CC(N)=O)NC(=O)[C@H](Cc1c[nH]c2ccccc12)NC(=O)[C@@H](NC(=O)[C@H](CCC(N)=O)NC(=O)[C@H](CC(N)=O)NC(=O)[C@H](CO)NC(=O)[C@@H](N)Cc1c[nH]c2ccccc12)[C@@H](C)O)[C@@H](C)O)C(=O)N[C@@H](CCCCN)C(=O)O` [1-3w] (H-WSNQTWNNSTWSNQTK-OH; N-terminus and C-terminus assumed) as the molecule, how does the peptide solubility read?
A: more insoluble

Q: With “WNTQTWCTQSWNNQAWNSPFYNCGEESK [5-8w, human C-terminal WR repeats]” as the molecule, how does the peptide solubility read?
A: relatively higher solubility

Q: With `CC[C@H](C)[C@H](NC(=O)[C@H](CC(N)=O)NC(=O)[C@H](CCC(N)=O)NC(=O)[C@@H](NC(=O)[C@H](CCC(N)=O)NC(=O)[C@H](CC(N)=O)NC(=O)[C@H](CO)NC(=O)[C@H](Cc1c[nH]c2ccccc12)NC(=O)[C@@H](NC(=O)[C@H](CO)NC(=O)[C@H](CC(N)=O)NC(=O)[C@H](CC(N)=O)NC(=O)[C@H](Cc1c[nH]c2ccccc12)NC(=O)[C@@H](NC(=O)[C@H](CCC(N)=O)NC(=O)[C@H](CC(N)=O)NC(=O)[C@H](CO)NC(=O)[C@@H](N)Cc1c[nH]c2ccccc12)[C@@H](C)O)[C@@H](C)O)[C@@H](C)O)C(=O)N[C@@H](CCC(N)=O)C(=O)N[C@@H](CO)C(=O)N[C@@H](Cc1c[nH]c2ccccc12)C(=O)N[C@@H](CO)C(=O)N[C@@H](CC(N)=O)C(=O)N[C@@H](Cc1c[nH]cn1)C(=O)N[C@@H](CO)C(=O)N[C@@H](CCCCN)C(=O)O` [1-4w] (H-WSNQTWNNSTWSNQTQNIQSWSNHSK-OH; N-terminus and C-terminus assumed) as the molecule, how does the peptide solubility read?
A: more insoluble

Q: Which peptide solubility does the source give for `C[C@@H](O)[C@H](NC(=O)[C@H](CCC(N)=O)NC(=O)[C@H](CC(N)=O)NC(=O)[C@H](CO)NC(=O)[C@H](Cc1c[nH]c2ccccc12)NC(=O)[C@@H](NC(=O)[C@H](CO)NC(=O)[C@H](CC(N)=O)NC(=O)[C@H](CC(N)=O)NC(=O)[C@H](Cc1c[nH]c2ccccc12)NC(=O)[C@@H](NC(=O)[C@H](CCC(N)=O)NC(=O)[C@H](CC(N)=O)NC(=O)[C@H](CO)NC(=O)[C@@H](N)Cc1c[nH]c2ccccc12)[C@@H](C)O)[C@@H](C)O)C(=O)N[C@@H](CCCNC(=N)N)C(=O)N[C@@H](CCCNC(=N)N)C(=O)N[C@@H](CCCNC(=N)N)C(=O)N[C@@H](CCCNC(=N)N)C(=O)N[C@@H](CCCNC(=N)N)C(=O)N[C@@H](CCCNC(=N)N)C(=O)N[C@@H](CCCCN)C(=O)N[C@@H](CCCCN)C(=O)N[C@@H](CS)C(=O)O` [1-3wRRK] (H-WSNQTWNNSTWSNQTRRRRRRKKC-OH; N-terminus and C-terminus assumed) here?
A: very soluble

Q: For `C[C@H](NC(=O)[C@H](CCC(N)=O)NC(=O)[C@H](CO)NC(=O)[C@H](CO)NC(=O)[C@H](Cc1c[nH]c2ccccc12)NC(=O)[C@@H](NC(=O)[C@@H]1CCCN1C(=O)[C@H](CC(N)=O)NC(=O)[C@@H](NC(=O)[C@@H](N)Cc1c[nH]c2ccccc12)[C@@H](C)O)[C@@H](C)O)C(=O)N[C@@H](Cc1c[nH]c2ccccc12)C(=O)N[C@H](C(=O)N[C@@H](C)C(=O)N[C@@H](CCC(N)=O)C(=O)N[C@@H](CO)C(=O)N[C@@H](Cc1c[nH]c2ccccc12)C(=O)N[C@@H](CC(N)=O)C(=O)NCC(=O)N[C@@H](CCC(N)=O)C(=O)N1CCC[C@H]1C(=O)N[C@@H](Cc1c[nH]c2ccccc12)C(=O)N[C@@H](CC(N)=O)C(=O)N[C@@H](C)C(=O)N[C@@H](C)C(=O)N1CCC[C@H]1C(=O)N[C@@H](CCCCN)C(=O)O)[C@@H](C)O` [m6-10w] (H-WTNPTWSSQAWTAQSWNGQPWNAAPK-OH; N-terminus and C-terminus assumed), which peptide solubility is on record?
A: relatively higher solubility

Q: With `C[C@@H](O)[C@H](NC(=O)[C@H](CCC(N)=O)NC(=O)[C@H](CC(N)=O)NC(=O)[C@H](CO)NC(=O)[C@@H](N)Cc1c[nH]c2ccccc12)C(=O)N[C@@H](CCCCN)C(=O)O` [1w, WSNQTK] (H-WSNQTK-OH; N-terminus and C-terminus assumed) as the molecule, how does the peptide solubility read?
A: very soluble

Q: With `CC[C@H](C)[C@H](NC(=O)[C@H](CC(N)=O)NC(=O)[C@H](CCC(N)=O)NC(=O)[C@@H](NC(=O)[C@H](CCC(N)=O)NC(=O)[C@H](CC(N)=O)NC(=O)[C@H](CO)NC(=O)[C@H](C)NC(=O)[C@@H](NC(=O)[C@H](CO)NC(=O)[C@H](CC(N)=O)NC(=O)[C@H](CC(N)=O)NC(=O)[C@H](C)NC(=O)[C@@H](NC(=O)[C@H](CCC(N)=O)NC(=O)[C@H](CC(N)=O)NC(=O)[C@H](CO)NC(=O)[C@H](C)N)[C@@H](C)O)[C@@H](C)O)[C@@H](C)O)C(=O)N[C@@H](CCC(N)=O)C(=O)N[C@@H](CO)C(=O)N[C@@H](Cc1c[nH]c2ccccc12)C(=O)N[C@@H](CO)C(=O)N[C@@H](CC(N)=O)C(=O)N[C@@H](Cc1c[nH]cn1)C(=O)N[C@@H](CO)C(=O)N[C@@H](CCCCN)C(=O)O` [1-4wa] (H-ASNQTANNSTASNQTQNIQSWSNHSK-OH; N-terminus and C-terminus assumed) as the molecule, how does the peptide solubility read?
A: increased solubility

test: WR peptide aggregation kinetics by ThT fluorescence; type: physicochemical; settings: not given
Procedure: FIGS. 7A-7H provide data and illustrations related to the fibrillation propensities of NANOG WR-derived peptides. FIG. 7A illustrates NANOG domain organization and the human and mouse NANOG WR-derived peptides used in Example 2. […] Right panels show aggregation kinetics for peptides 1-3 w (top) and 1-4 w (bottom) after 1 min equilibration. Similar results were obtained from two independent experiments. […] Similar results were obtained from two independent experiments. […] Similar results were obtained from two independent experiments. […] Similar results were obtained from two independent preparations.
as §1, with “domains.” for “domains. On the other hand, charged and ‘structure breaker’ residues such as Gly and Pro contribute to the peptide's higher solubility.”

Q: For “WCTQSWNNQAWNSPFYNCGEESK [6-8w, human C-terminal WR repeats]”, which “aggregation kinetics” value is on record?
A: slower aggregation kinetics

Q: Which “aggregation kinetics” value does the source give for “WNTQTWCTQSWNNQAWNSPFYNCGEESK [5-8w, human C-terminal WR repeats]” here?
A: slower aggregation kinetics
